Patent US20020040062A1, “Protein kinase C activators and their use in decreasing expression of cell antigens” (The Trustees of Columbia University, priority 1993, published 2002)
Marks after values point to notes of the source that are not given here.

Experiments:
Assay type in all cases: cell-based, human
BCA 225 [1] = experiment: BCA 225 synthesis, double-determinant ELISA of T47D cell lysates; conditions: T47D cells, 72 hr
Description: (§1) After appropriate incubation times with the various compounds cell lysates were prepared from T47D cells. Cells were washed 3× in PBS, pH 7.6, pelleted and incubated for 1 hr at room temperature in 20 mM Tris HCl, pH 7.4, with PMSF. Cultures were then homogenized with a Teflon homogenizer, centrifuged at 3000 RPM for 10 min at 4° C. and the supernatant was mixed 1:2 with 20 mM Tris-HCl, pH 7.4, containing 0.5% NP40 (Sigma). After 1 hr at 4° C., the mixture was spun at 3000 RPM for 10 min and the supernatant was passed through an EXTRACTIGEL column (Pierce, Ill.) to remove excess detergent. Protein concentration was determined by the BCA micro-method (Pierce, Ill.). BCA 225 levels in cell extracts and supernatants from control and treated T47D cells were quantitated using a double-determinant ELISA assay. Briefly, Cu18 monoclonal antibody coated Nunc Immunoplates (Nunc, Denmark) were blocked with 1% BSA (Sigma, RIA Reagent Grade) and incubated with a 1:2 dilution of supernatant in duplicate. Standard values for a partially purified BCA 225 preparation were used at a range of 0 to 10 μg/ml in RPMI 1640 plus 10% FBS (T47D growth medium). After 2 hr incubation and three washings with PBS 0.1% Tween 20 a Cu46 monoclonal antibody conjugated to peroxidase was applied to the plate, incubated for 2 hr, washed 6× in PBS 0.1% Tween 20 and the reaction was developed with […] OPD (Sigma, St. Louis) and 4 μl of 30% H2O2 in McIlvans buffer, pH […]. The plates were read on a Dynatech Elisa reader and a linear standard curve was generated and used to calculate the relative amount of BCA 225 in cell lysates and shed into the culture medium. Results were adjusted to ng BCA 225 per mg of protein, or per 1×10^6 cells. Replicate samples varied by ≦10% and replicate experiments varied by ≦20%.

HLA Class II antigens = experiment: FACS analysis of HLA Class II antigen surface expression in T47D cells; conditions: for HLA Class II level of upregulation versus untreated control cells (equivalent to 1.0): presence or absence of 0.1 μg/ml H-7; for HLA Class II relative increase in expression versus untreated controls (equivalent to 1.0): presence or absence of 1.0 μg/ml H-7
From the text: (§2) IgG1 murine monoclonal antibody Cu18 and Cu46 recognize two different epitopes of a highly restricted breast carcinoma associated glycoprotein of Mr 225,000 to 250,000 (BCA 225). This TAA is expressed intracytoplasmically and on the membrane of 94% of breast tumors tested and in the T47D human breast carcinoma cell line. BCA 225 is shed into the culture medium by T47D cells and into the sera of breast cancer patients. IgG2a monoclonal antibody L243 (anti HLA Class II-DR) recognizes a monomorphic HLA Class II-DR-α epitope (ATCC M355). Monoclonal antibody CL203.4 [40], which recognizes ICAM-I, was kindly provided by Dr. S. Ferrone, New York Medical College, NY. The c-erbB-2 monoclonal antibody which recognizes the extracellular domain of c-erbB-2 was obtained from Triton Biosciences, Inc., Alamedia, Calif. Monoclonal antibodies Cu18 and Cu46 were used at 0.05 μg/ml and monoclonal antibodies interacting with HLA Class II-DR, ICAM-1 and c-erbB-2 were used at 10 μg/ml.
(§3) T47D cells treated with the various compounds were analyzed by flow cytometry using appropriate monoclonal antibody concentrations as described previously. Briefly, 1×10^5 cells were incubated with the test antibody for 30 min at 4° C., washed 3× with PBS and incubated with a goat a mouse F (ab)2 FITC conjugated test antibody at a 1:40 dilution for 30 min at 4° C. Cells were then washed 3× with PBS and analyzed on a FACStar (Beckon Dickinson, Mountain View, Calif.) or a Coulter Epics IV FACS (Coulter, Hialeah, Fla.). Results are expressed as mean fluorescence intensity (MFI) units which were determined as described previously. MFI=(mean channel fluorescence in fluorescence positive antibody-binding cells×% of fluorescence positive antibody-binding cells)−(mean channel fluorescence in unstained cells×% of fluorescence positive cells in the unstained population). All studies were performed a minimum of three or four times with duplicate samples in each experiment.

BCA 225 [2] = experiment: FACS analysis of BCA 225 surface expression in T47D cells; conditions: 72 hr; for BCA 225 Expression, level of enhancement relative to control (equivalent to 1.0): presence or absence of 0.1 μg/ml H-7
From the text: as §2, with “μg/ml. For each experiment, isotype matched control backgrounds (IgG for Cu18, Cu46 and ICAM-1, IgG2a for HLA Class Ii and IgG2b for c-erbB-2) were subtracted from the experimental results. Background from antimouse IgG FITC antibody was also subtracted from experimental results. Applicants never observed backgrounds higher than 2% of total cells for isotypic mouse IgG or higher than 5% for antimouse IgG FITC.” for “μg/ml.”
as §3, with “experiment. Replicate samples within individual experiments varied by ≦10% and variation between experiments were generally ≦20%.” for “experiment.”

BCA 225 [3] = experiment: BCA 225 shedding into culture medium, double-determinant ELISA; conditions: T47D cells; for BCA 225 Shedding / BCA 225 Shedding, level of enhancement relative to control (equivalent to 1.0) / BCA 225 Shedding, relative change in comparison with controls (equivalent to 1.0): 72 hr; for ability to induce shedding of BCA 225: Table 2
Description: as §1

[4] = 0.1 μg/ml TPA, 0.1 μg/ml MEZ or 0.25 μg/ml ADMB, presence or absence of 0.1 μg/ml H-7
[5] = 0.1 μg/ml TPA, 0.1 μg/ml MEZ or 0.25 μg/ml ADMB
[6] = 0.1 μg/ml TPA, 0.1 μg/ml MEZ or 0.25 μg/ml ADMB, presence or absence of 0.1 μg/ml H-7, CU18 antibody
[7] = 500 units/ml IFN-β or 50 units/ml IFN-γ, presence or absence of 1.0 μg/ml H-7
[8] = 72 hr, 0.1 μg/ml TPA or MEZ, presence or absence of 0.1 μg/ml H-7, FACStar
[9] = 72 hr, 500 units/ml IFN-β or 50 units/ml IFN-γ
[10] = 72 hr, 500 units/ml IFN-β or 50 units/ml IFN-γ, presence or absence of 1.0 μg/ml H-7, Coulter Epics IV FACS

Molecule	BCA 225 Synthesis (BCA 225 [1]; [4])	BCA 225 Synthesis, level of enhancement relative to control (equivalent to 1.0) (BCA 225 [1]; [4])	efficacy of upregulation of HLA Class II antigens (fold-change in MFI, FIG. 2) (HLA Class II antigens; 72 hr, 0.1 μg/ml of ADMB, TPA or MEZ)	BCA 225 Expression, level of enhancement relative to control (equivalent to 1.0) (BCA 225 [2]; [5])	BCA 225 Expression (BCA 225 [2]; [6])	BCA 225 Shedding (BCA 225 [3]; [4])	BCA 225 Shedding, level of enhancement relative to control (equivalent to 1.0) (BCA 225 [3]; [4])	ability to induce shedding of BCA 225 (BCA 225 [3])	BCA 225 Synthesis (BCA 225 [1]; [7])	BCA 225 Synthesis, relative change in comparison with controls (equivalent to 1.0) (BCA 225 [1]; [7])	HLA Class II level of upregulation versus untreated control cells (equivalent to 1.0) (HLA Class II antigens; 72 hr, 0.1 μg/ml TPA or MEZ)	Antigenic Expression (MFI) HLA Class II (HLA Class II antigens; [8])	HLA Class II relative increase in expression versus untreated controls (equivalent to 1.0) (HLA Class II antigens; [9])	Antigenic Expression (MFI) HLA Class II (HLA Class II antigens; [10])	BCA 225 Expression (BCA 225 [2]; [7])	BCA 225 Expression, relative change in comparison with controls (equivalent to 1.0) (BCA 225 [2]; [7])	BCA 225 Shedding (BCA 225 [3]; [7])	BCA 225 Shedding, relative change in comparison with controls (equivalent to 1.0) (BCA 225 [3]; [7])	fold increase in HLA Class II expression (HLA Class II antigens; 500 units/ml IFN-α, IFN-β or IFN-γ as in Table 3)
CCCCCCCCCCN(C)c1cc(CO)cc(NC(C)=O)c1 [ADMB, 3-(N-acetylamino)-5-(N-decyl-N-methylamino)-benzyl alcohol]	299 ng/mg protein	1.8	somewhat more effective than TPA and MEZ	2.0	12,825 MFI	26 ng/ml/10^6 cells	0.9	did not induce this effect											
CC1CNCCN1S(=O)(=O)c1cccc2cnccc12.Cl.Cl (stereo not drawn) [H-7, 1-(5-isoquinolinesulfonyl)-2-methylpiperazine dihydrochloride]	142 ng/mg protein	0.9		0.8	5,428 MFI	23 ng/ml/10^6 cells	0.8		230 ng/mg protein	1.0	(1.3)^b	4,563 MFI	1.2	3,490 MFI	2,560 MFI	0.9	38 ng/ml/10^6 cells	0.8	
C=C(C)[C@@]12O[C@@]3(c4ccccc4)O[C@@H]1[C@@H]1[C@@H]4O[C@]4(CO)[C@@H](O)[C@]4(O)C(=O)C(C)=C[C@H]4[C@@]1(O3)[C@H](C)[C@H]2OC(=O)/C=C/C=C/c1ccccc1 [MEZ, mezerein]	507 ng/mg protein	3.1		2.5	16,065 MFI	147 ng/ml/10^6 cells	5.3	enhance shedding of BCA 225			(3.0)	10,260 MFI							
CCCCCCCCCCCCCC(=O)O[C@@H]1[C@@H](C)[C@@]2(O)[C@@H](C=C(CO)C[C@]3(O)C(=O)C(C)=C[C@@H]23)[C@H]2C(C)(C)[C@]12OC(C)=O [TPA, 12-0-tetradecanoyl-phorbol-13-acetate]	394 ng/mg protein	2.4		1.8	11,696 MFI	84 ng/ml/10^6 cells	3.0	enhance shedding of BCA 225			(2.9)	9,984 MFI							
IFN-β: recombinant human fibroblast interferon with a serine substituted for a cysteine at position 17 (protein, UniProt P01574 22-187, looked up, variant C17S) Interferon beta: MSYNLLGFLQRSSNFQSQKLLWQLNGRLEYCLKDRMNFDIPEEIKQLQQFQKEDAALTIYEMLQNIFAIFRQDSSSTGWNETIVENLLANVYHQINHLKTVLEEKLEKEDFTRGKLMSSLHLKRYYGRILHYLKAKEYSHCAWTIVRVEILRNFYFINRLTGYLRN									374 ng/mg protein	1.7			10.8	31,413 MFI	5,716 MFI	2.0	69 ng/ml/10^6 cells	1.5	11 fold
